Here are results for two molecules from patent US11229638B2, “Therapeutic heterocyclic compounds” (Gilead Sciences, Inc., priority 2017, dated 2022).

The target of the experiment is T1, IDO1 (Homo sapiens, UniProt P14902).
T1 construct: HeLa cells were treated with a test compound in the presence of IFNγ, which induces IDO1 expression; host or cells: H1-HeLa cells, IDO1 induced with IFN-gamma
In words: Cell-Based (HeLa) Assay for Measurement of IDO1 Inhibition. Conditions: H1-HeLa cells, IDO1 induced by IFNγ, 48 hour incubation, kynurenine in supernatant (absorbance at 480 nm); geometric mean of a minimum of four determinations. The protocol:
Example 509. Cell-Based (HeLa) Assay for Measurement of IDO1 Inhibition
To measure IDO1 inhibition in tissue culture, HeLa cells were treated with a test compound in the presence of IFNγ, which induces IDO1 expression. Following incubation, cell supernatants were assayed for kynurenine levels, an indicator of IDO1 activity.
H1-HeLa cells (ATCC # CRL-1958) were seeded in 384-well plates (Greiner #82051-282) at a volume of 50 µL/well in DMEM (Corning #15-018-CM) supplemented with 10% FBS (Corning #35-011-CV) and 1% P/S/G (Corning #30-009-CL) at a density of 1,250 cells/well and incubated overnight at 37° C., 5% CO2/100% humidity. The following day, the test compounds were added in DMSO (0.5% final) at various concentrations, and IDO1 was inducibly expressed by the addition of 50 uL/well of 50 ng/mL of INFγ (Peprotech #300-02) in cell plating media. As a positive control, 50 uL of the cell plating media without IFNγ was added to several wells. Following a 48 hour incubation, the plates were spun down at 1,200 RPM for 5 min at 10° C. […]
Data in Table 1 were normalized based on positive (−IFNγ) and negative (+IFNγ) controls and EC50 values were calculated from the fit of the dose-response curves to a four-parameter equation. […]

What is called EC50 is the midpoint of the concentration-response curve. High values mean a less potent agent, low ones a more potent agent.

T1 sequence (P14902 whole entry): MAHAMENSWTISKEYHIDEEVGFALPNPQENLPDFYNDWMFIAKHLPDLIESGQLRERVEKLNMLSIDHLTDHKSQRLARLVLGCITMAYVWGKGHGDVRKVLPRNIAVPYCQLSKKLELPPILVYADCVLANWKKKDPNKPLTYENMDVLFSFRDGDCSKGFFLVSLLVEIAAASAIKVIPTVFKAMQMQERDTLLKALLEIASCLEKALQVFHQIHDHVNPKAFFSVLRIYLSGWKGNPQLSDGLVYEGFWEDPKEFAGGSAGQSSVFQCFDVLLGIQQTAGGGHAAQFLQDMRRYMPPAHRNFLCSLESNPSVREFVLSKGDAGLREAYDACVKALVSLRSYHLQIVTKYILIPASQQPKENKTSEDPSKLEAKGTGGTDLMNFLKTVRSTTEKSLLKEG

The molecule “N-(4-chlorophenyl)-5-(3-(2,3-difluorophenyl)imidazo[1,5-a]pyridin-8-yl)-2-methylnicotinamide [Example 61]” came in with an EC50 of 29.9 nM.
For `Cc1ncc(-c2cccn3c(C4CCOC4)ncc23)cc1C(=O)Nc1ccc(F)cc1` (centres unmarked) [Example 76, N-(4-fluorophenyl)-2-methyl-5-(3-(tetrahydrofuran-3-yl)imidazo[1,5-a]pyridin-8-yl)nicotinamide], the half-maximal effective concentration (EC50) amounted to 5000 nM.
